According to patent US5654422A, “Acylated γ-cyclodextrins” (priority 1994, dated 1997):
Like-named read-outs stand apart in the source and are kept apart here. Blank lines part the entries; values can stand above or below the compound they belong to.

Tests used:
[1] = G. Antlsperger, 6th International Symposium on Cyclodextrins, 1992; cited from earlier work
[2] = cited from earlier work
[3] = cited from earlier work; remark: listed apart in the source
[4] = zahn-wellens test, 336 h
Method: The biological degradability was determined by means of the Zahn-Wellens Test (OECD Guidelines for testing of Chemicals 302B, Adopted by the Council on 17th Jul. 1992).

Compound: OC[C@H]1O[C@@H]2O[C@H]3[C@H](O)[C@@H](O)[C@@H](O[C@H]4[C@H](O)[C@@H](O)[C@@H](O[C@H]5[C@H](O)[C@@H](O)[C@@H](O[C@H]6[C@H](O)[C@@H](O)[C@@H](O[C@H]7[C@H](O)[C@@H](O)[C@@H](O[C@H]8[C@H](O)[C@@H](O)[C@@H](O[C@H]9[C@H](O)[C@@H](O)[C@@H](O[C@H]1[C@H](O)[C@H]2O)O[C@@H]9CO)O[C@@H]8CO)O[C@@H]7CO)O[C@@H]6CO)O[C@@H]5CO)O[C@@H]4CO)O[C@@H]3CO [γ-CD, γ-cyclodextrin]
toxicological properties [1]: favorable toxicological properties | precipitation of complexes at higher concentrations ([2]; U.S. Pat. No. 4,764,604): frequently precipitate out at higher concentrations | solubilizing capacity / properties ([2]; prior art statement): comparatively low | solubility in water ([3]; native γ-cyclodextrin): 18.7 % by weight | solubility in water ([3]; prior art statement): comparatively poorly soluble in water

Degradation ZaWe-14d [4]: 98%
Compound: Acetyl-γ-CD (DS, 0.83) [Ex. 2 Ac-gamma-CD(0.83)]

Degradation ZaWe-14d [4]: 14%
Compound: Methyl-γ-cyclodextrin (DS,1.8) [Me-gamma-CD(1.8)]

Degradation ZaWe-14d [4]: 25%
Compound: hydroxypropyl-γ-cyclodextrin [Hp-gamma-CD(0.9)]
